Earlier results, collected in patent US20050123576A1, “Mupirocin compositions for topical use, an improved process of making same and methods of using same” (priority 2003, published 2005).

Experiments:
[1] = in the presence of water, acids and bases
[2] = glycerol, mineral oil, caprylic-capric triglyceride, isopropyl myristate, isopropyl palmitate, octyl dodecanol (Eutanol G), isopropyl stearate

stability (hydrolysis and rearrangement reactions) [1]: unstable
solubility in pharmaceutically acceptable carriers [2]: insoluble
SMILES: C/C(=C\C(=O)OCCCCCCCCC(=O)O)C[C@@H]1OC[C@H](C[C@@H]2O[C@H]2[C@@H](C)[C@H](C)O)[C@@H](O)[C@H]1O [Mupirocin]
